Patent publication US20100286186A1, “NOVEL DICARBOXYLIC ACID LINKED AMINO ACID AND PEPTIDE PRODRUGS OF OPIOIDS AND USES THEREOF” (Shire LLC, priority 2009, published 2010)

Key:
gut motility in the rat = assay: Charcoal propulsion test of GI motility in the rat; assay type: in vivo; settings: oral
Procedure: Test treatments were administered to groups of up to 10 rats fasted overnight prior to the test.
Test treatments were administered orally 60 minutes prior to a 2.0 mL oral dose of a 10% suspension of charcoal in 5% gum arabic. Thirty minutes after dosing with charcoal, the rats were sacrificed and the entire gastro-intestinal tract quickly and carefully removed. The distance the charcoal meal had traveled from the pyloric sphincter toward the caecum was measured and expressed as a percentage of both the total gut length and the length of the small intestine.

[1] = Plasma pharmacokinetics of meptazinol dicarboxylate linked prodrugs after oral gavage to dogs; assay type: in vivo, dog; settings: 1 mg meptazinol base equivalents/kg; for Dog Cmax (plasma prodrug levels, in brackets) / Cmax: prodrug level, BLQ = below 0.5 ng/mL; for Cmax: beagle, plasma, read-out: Dog Cmax (plasma prodrug levels, in brackets)
[2] = Plasma pharmacokinetics of meptazinol dicarboxylate linked prodrugs after oral gavage to cynomolgus monkeys; assay type: in vivo, cynomolgus monkey; settings: 1 mg meptazinol base equivalents/kg
[3] = Comparative oral bioavailability of oxycodone from various dicarboxylate bridged amino acid prodrugs in dogs (nine-way crossover); assay type: in vivo, dog; settings: 1 mg/kg oxycodone free base; for Cmax of oxycodone / T50% Cmax of oxycodone / AUC0-t of oxycodone: mean (±sd); for AUC0-t of oxycodone: t = last quantifiable time point
[4] = In vitro stability of dicarboxylate amino acid ester prodrugs in simulated gastric and intestinal juice, distilled water and pH 10 buffer (HPLC); settings: for Simulated gastric fluid (pH 1.1): % remaining after 2 h/37° C.: pH 1.1, 2 h; for Distilled water (pH 5.9): % remaining after 2 h/20° C.: pH 5.9, 2 h; for Simulated intestinal fluid (pH 6.8): % remaining after 2 h/37° C.: pH 6.8, 2 h; for pH 10.0 buffer: % remaining after 2 h/20° C.: pH 10.0, 2 h
[5] = cynomolgus monkey, oral gavage of prodrug, prodrug level, BLQ = below 0.5 ng/mL

Row | Structure (SMILES) | F % (absolute oral bioavailability of oxycodone) [3] | Cmax of oxycodone [3] | T50% Cmax of oxycodone [3] | AUC0-t of oxycodone [3] | Simulated gastric fluid (pH 1.1): % remaining after 2 h/37° C. [4] | Distilled water (pH 5.9): % remaining after 2 h/20° C. [4] | Simulated intestinal fluid (pH 6.8): % remaining after 2 h/37° C. [4] | pH 10.0 buffer: % remaining after 2 h/20° C. [4] | further results
1 | COc1ccc2c3c1O[C@H]1[C@@H](O)C=C[C@H]4[C@@H](C2)N(C)CC[C@@]341 [Codeine phosphate hemihydrate] | – | – | – | – | – | – | – | – | % change from vehicle-treated animals, small intestine (gut motility in the rat; 10 mg/kg): −22.0%; % change from vehicle-treated animals, total gut length (gut motility in the rat; 10 mg/kg): −21.7%; % change from vehicle-treated animals, small intestine (gut motility in the rat; 30 mg/kg): −32.1%; % change from vehicle-treated animals, total gut length (gut motility in the rat; 30 mg/kg): −32.0%; % change from vehicle-treated animals, small intestine (gut motility in the rat; 100 mg/kg): −35.1%; % change from vehicle-treated animals, total gut length (gut motility in the rat; 100 mg/kg): −34.9%
2 | COc1ccc2c3c1O[C@H]1[C@@H](O)CC[C@H]4[C@@H](C2)N(C)CC[C@@]341.O=C(O)C(O)C(O)C(=O)O [Dihydrocodeine Hydrogen Tartrate, reference compound] | – | – | – | – | – | – | – | – | % change from vehicle-treated animals, small intestine (gut motility in the rat; 10 mg/kg): −17.6%; % change from vehicle-treated animals, total gut length (gut motility in the rat; 10 mg/kg): −16.3%; % change from vehicle-treated animals, small intestine (gut motility in the rat; 30 mg/kg): −29.8%; % change from vehicle-treated animals, total gut length (gut motility in the rat; 30 mg/kg): −30.5%; % change from vehicle-treated animals, small intestine (gut motility in the rat; 100 mg/kg): −56.4%; % change from vehicle-treated animals, total gut length (gut motility in the rat; 100 mg/kg): −57.0%; % change from vehicle-treated animals, small intestine (gut motility in the rat; 300 mg/kg): −67.7%; % change from vehicle-treated animals, total gut length (gut motility in the rat; 300 mg/kg): −68.0%
3 | CCC1(c2cccc(OC(=O)CCCC(=O)N[C@H](C(=O)O)C(C)C)c2)CCCCN(C)C1 (stereo partly drawn) [Meptazinol [glutaryl-(S)-valine] ester] | – | – | – | – | – | – | – | – | systemic levels of meptazinol versus expected Cmax after the drug itself ([1]; dog, oral gavage): improved systemic levels of meptazinol; Dog Cmax (plasma prodrug levels, in brackets) ([1]; dog, oral gavage of prodrug): 2.8 ng/mL; improvement in systemic levels of meptazinol ([2]; monkey, oral gavage): not seen in the monkey
4 | CCC1(c2cccc(OC(=O)/C=C\C(=O)N[C@@H](Cc3ccccc3)C(=O)O)c2)CCCCN(C)C1 (stereo partly drawn) [Meptazinol [malearyl-(S)-phenylanine] ester] | – | – | – | – | – | – | – | – | Dog Cmax (plasma prodrug levels, in brackets) ([1]; dog, oral gavage of prodrug): 1.7 ng/mL
5 | CCC1(c2cccc(OC(=O)/C=C\C(=O)N[C@H](C(=O)O)C(C)C)c2)CCCCN(C)C1 (stereo partly drawn) [Meptazinol [malearyl-(S)-valine] ester] | – | – | – | – | – | – | – | – | Cmax ([1]; dog, oral gavage of prodrug): 6 ng/mL; Monkey Cmax (plasma prodrug levels, in brackets) [2, 5]: BLQ
6 | CCC1(c2cccc(OC(=O)CC(=O)NC(C(=O)O)C(C)C)c2)CCCCN(C)C1 [Meptazinol [malonyl-(S)-valine] ester] | – | – | – | – | – | – | – | – | Dog Cmax (plasma prodrug levels, in brackets) ([1]; dog, oral gavage of prodrug): 44 ng/mL
7 | CCC1(c2cccc(OC(=O)CC(=O)Nc3ccc(C(=O)O)cc3)c2)CCCCN(C)C1 (stereo not shown) [Meptazinol [malonyl-PABA] ester] | – | – | – | – | – | – | – | – | Dog Cmax (plasma meptazinol) ([1]; dog, oral gavage of prodrug, meptazinol level): 2.1 ng/mL
8 | CCC1(c2cccc(OC(=O)CC(C)(C)CC(=O)N[C@H](C(=O)O)C(C)C)c2)CCCCN(C)C1 (stereo partly drawn) [Meptazinol-[3,3-dimethyl-glutaryl-(S)-valine] ester] | – | – | – | – | – | – | – | – | Cmax ([1]; dog, oral gavage of prodrug): 116 ng/mL; systemic levels of the prodrug ([1]; oral gavage): good systemic levels of the prodrug; Cmax ([2]; plasma, cynomolgus monkey, oral gavage of prodrug, prodrug level, BLQ = below 0.5 ng/mL, read-out: Monkey Cmax (plasma prodrug levels, in brackets)): 43 ng/mL
9 | CCC1(c2cccc(OC(=O)/C=C/C(=O)N[C@H](C(=O)O)C(C)C)c2)CCCCN(C)C1 (stereo partly drawn) [Meptazinol-[fumaryl-(S)-valine] ester] | – | – | – | – | – | – | – | – | Dog Cmax (plasma prodrug levels, in brackets) ([1]; dog, oral gavage of prodrug): BLQ; Monkey Cmax (plasma prodrug levels, in brackets) [2, 5]: BLQ
10 | COc1ccc2c3c1O[C@H]1C(OC(=O)CCC(=O)N4CCC[C@H]4C(=O)O)=CC[C@@]4(O)[C@@H](C2)N(C)CC[C@]314 [Oxycodone succinyl proline ester] | 20.8% | 20.1 (±4.60) ng/mL | 3.4 (±0.9) h. | 75.2 (±13.7) h. * ng/mL | 98% | 100% | 96% | 80% | –
11 | CC[C@H](C)[C@H](NC(=O)CCCC(=O)OC1=CC[C@@]2(O)[C@H]3Cc4ccc(OC)c5c4[C@@]2(CCN3C)[C@H]1O5)C(=O)O [Oxycodone-Glutaryl-Ile Enol Ester, oxycodone-[glutaryl-(S)-isoleucine]enol ester] | 37.4% | 46.8 (±15.0) ng/mL | 2.8 (±0.2) h. | 135.7 (±27.9) h. * ng/mL | 98% | 100% | 80% | 80% | –
12 | COc1ccc2c3c1O[C@H]1C(OC(=O)CCCC(=O)N[C@H](C(=O)O)C(C)C)=CC[C@@]4(O)[C@@H](C2)N(C)CC[C@]314 [Oxycodone-Glutaryl-Val Enol Ester, oxycodone-[glutaryl-(S)-valine] enol ester] | – | – | 2.9 (±0.3) h. | – | 98% | 100% | 87% | 75% | –
13 | CC[C@H](C)[C@H](NC(=O)CCC(=O)OC1=CC[C@@]2(O)[C@H]3Cc4ccc(OC)c5c4[C@@]2(CCN3C)[C@H]1O5)C(=O)O [Oxycodone-Succinyl-Ile Enol Ester, oxycodone-[succinyl-(S)-isoleucine] enol ester] | 36.0% | 57.9 (±8.7) ng/mL | 1.6 (±0.4) h. | 130.6 (±25.6) h. * ng/mL | 98% | 100% | 91% | 66% | –
14 | COc1ccc2c3c1OC1C(OC(=O)CCC(=O)N[C@@H](CC(C)C)C(=O)O)=CC[C@@]4(O)[C@@H](C2)N(C)CC[C@]314 (stereo partly drawn) [Oxycodone-Succinyl-Leu Enol Ester, oxycodone-[succinyl-(S)-leucine]enol ester] | 39.3% | 60.9 (±15.0) ng/mL | 1.9 (±0.2) h. | 142.5 (±28.4) h. * ng/mL | 98% | 100% | 78% | 68% | –
15 | COc1ccc2c3c1OC1C(OC(=O)CCC(=O)N[C@@H](CCSC)C(=O)O)=CC[C@@]4(O)[C@@H](C2)N(C)CC[C@]314 (stereo partly drawn) [Oxycodone-Succinyl-Met Enol Ester, oxycodone-[succinyl-(S)-methionine]enol ester] | 49.8% | 68.3 (±21.1) ng/mL | 2.3 (±0.8) h. | 180.6 (±37.7) h. * ng/mL | 99% | 100% | 84% | 58% | –
16 | COc1ccc2c3c1O[C@H]1C(OC(=O)CCC(=O)N[C@@H](Cc4ccccc4)C(=O)O)=CC[C@@]4(O)[C@@H](C2)N(C)CC[C@]314 [Oxycodone-Succinyl-Phe Enol Ester, oxycodone-[succinyl-(S)-phenylalanine]enol ester] | – | – | – | – | 99% | 100% | 3% | 65% | –
